# Test results reported in PMC6327999, “Hydroxyl-substituted double Schiff-base condensed 4-piperidone/cyclohexanones as potential anticancer agents with biological evaluation” (Journal of Enzyme Inhibition and Medicinal Chemistry, 2019).
# Columns and labels:
# [1] = system: human gastric adenocarcinoma cells (SGC7901); assay: Cytotoxicity, MTT assay, SGC7901; format: cell-based
# Text: (§1) Compounds 2a–d, 3a–e, 4a–e, 5a–d, and 6a–c were screened against human neoplastic cell lines such as human lung carcinoma cells (A549), human gastric adenocarcinoma cells (SGC7901), human cervical carcinoma cells (HeLa), human liver hepatocellular carcinoma cell line (Hepg2), human chronic myelogenous leukemia cell line (K562), human acute mononuclear granulocyte leukemia (THP-1), human normal heptical cell line (LO2) (Table 1) using modified MTT assay (3-(4,5-dimethyl-2-thiazolyl)-2,5-diphenyl-2-H-tetrazolium bromide, MTT, Dojindo Laboratories, Tokyo, Japan). All cell lines were maintained at 37 °C in a humidified 5% CO2 and 95% air atmosphere. The HePG2 cell lines were cultured in DMEM containing 10% fetal bovine serum. Other cell lines were grown in medium 1640 and supplemented with 10% fetal bovine serum. […] Controls were prepared with 0.1% DMSO (v/v) only. The cells were seeded in a 96-well plate in 200 µL medium per well at a density of 1 × 10^4 cells/well for 24 hours. The cells were treated with serial concentrations of compound and incubated for 24 hours. Cells with only culture media were used as control. After the media was removed, 20 µL of MTT (5 mg/mL) was added then the plates were incubated for 4 hours at 37 °C in cell culture incubator. The MTT containing media were removed and then 150 µL of DMSO was added to dissolve the dark-blue formazan crystals. The optical density (OD) was measured by a multi-well plate reader (TECAN, Männedorf, Switzerland) at 570 nm. The results are expressed as a decrease in the cell viability (%) in comparison to untreated controls. The concentration of each compound was examined in triplicate, and the IC50 values are expressed in Table 1. The concentrations of the compounds were 50, 20, 10, 5, 2.5, 1, 0.5, 0.1, 0.05 and 0.01 µg/mL. Doxorubicin (DOX) and Curcumin were used as positive controls. […] The concentrations of curcumin used were 100, 50, 25, 12.5, 6.25, 3.125, 1, 0.5 and 0.1 µg/mL.
# [2] = system: human chronic myelogenous leukemia cell line (K562); assay: Cytotoxicity, MTT assay, K562; format: cell-based
# Text: as §1
# [3] = system: human liver hepatocellular carcinoma cell line (Hepg2); assay: Cytotoxicity, MTT assay, HePG2; format: cell-based
# Text: as §1, with “µg/mL.” for “µg/mL. Doxorubicin (DOX) and Curcumin were used as positive controls.”
# [4] = system: human acute mononuclear granulocyte leukemia (THP-1); assay: Cytotoxicity, MTT assay, THP-1; format: cell-based
# Text: as §1
# [5] = system: human cervical carcinoma cells (HeLa); assay: Cytotoxicity, MTT assay, HeLa; format: cell-based
# Text: as §1
# Bcl-2 = assay: Western blot, Bcl-2 expression; format: cell-based, human; settings: HepG2, 3 h, 1.0, 2.0, 4.0 µM, vs negative control
# Experimental: The HepG2 cell lines were treated with different dose of by BAP 5c (1.0, 2.0, 4.0 µM, respectively) for 3 hours, then washed twice with PBS, and lysed in ice-cold modified RIPA buffer containing PMSF (RIPA:PMSF = 100:1; the ultimate density of PMSF is 1.0 mM). The lysates were kept for 30 minutes on the ice, and then centrifuged for 15 min at 12000 rpm/min at 4 °C and the supernatant was collected. The proteins were boiled at 95 °C at 5 min with loading buffer (the volume ratio of protein and the loading buffer is 4:1). Each 50 µg protein of cell lysates were separated by 10% SDS-PAGE gel electrophoresis. The proteins were then transferred onto polyvinylidene fluorides membrane. The membranes were probed with antibodies and visualised using an enhanced chemiluminescence (ECL) detection kit according to the manufacturer instruction.
# HepG2 cells = assay: Apoptosis assay, Annexin V-FITC/PI flow cytometry; format: cell-based, human; settings: 5c treatment for 24 hours, 1.0, 2.0, 4.0 µM, early and late apoptosis
# Experimental: HepG2 cells were plated at a density of 1 × 10^5 cells/well in 24-well plates. […] One hundred microliters of such solution (1 × 10^5 cells) was mixed with 5 µL of Annexin V-FITC and 5µL of Propidium Iodide (BD Biosciences, San Jose, CA, USA) according to the manufacturer’s instruction. The mixed solution was gently vortexed and incubated in the dark at room temperature for 15 minutes. Four hundred microliters of 1X binding buffer were then added to each tube and cell apoptosis analysis was performed by flow cytometry (BD FACS Calibur) within 1 hour.
# [6] = quotient of the IC50 values towards nonmalignant LO2 cells
smiles,measurement,setting,value
O=C1/C(=C/c2cc(/N=C/c3ccc(O)c(O)c3O)ccc2F)CNC/C1=C\c1cc(/N=C/c2ccc(O)c(O)c2O)ccc1F [5c],IC50,"[1]; Homo sapiens, SGC-7901, MTT, 24 hours",1.4 ± 0.1 µM
same,SGC7901 SI,[1]; [6],11.1
same,IC50,"[2]; Homo sapiens, K562, MTT, 24 hours",1.3 ± 0.1 µM
same,K562 SI,[2]; [6],11.8
same,IC50,"[3]; Homo sapiens, HepG2, MTT, 24 hours",0.6 ± 0.1 µM
same,HePG2 SI,[3]; [6],24.5
same,IC50,"[4]; Homo sapiens, THP-1, MTT, 24 hours",0.9 ± 0.2 µM
same,THP-1 SI,[4]; [6],17.0
same,IC50,"[5]; Homo sapiens, HeLa, MTT, 24 hours",1.5 ± 0.3 µM
same,HeLa SI,[5]; [6],9.8
same,expression level of Bcl-2,Bcl-2,down-regulate the expression level of Bcl-2
same,HepG2 cells apoptosis,HepG2 cells,dose-dependent apoptosis
